What was measured:
[1] = Pharmacokinetics after IP and PO administration; type: in vivo, Hooded Wistar rats; settings: for AUC(0-inf) / AUC(0-t) / Cmax / Tmax: Hooded Wistar, rat, plasma
Description: When given via an intraperitoneal injection (IP), SOC-1 plasma levels show a rapid elevation. This swiftly declines over the first hour before settling into a less hasty decrease in concentration over the proceeding hours. […] The initial increase in plasma levels is less pronounced when SOC-1 is given orally but the decline is far less rapid, with plasma concentration becoming equivalent to IP between 1 and 4 hours. In many ways this is a more favourable profile as, unlike the IP dosing, oral dosing results in levels of SOC-1 that are still high but that are also very stable over many hours, with a half-life of over four hours.

[2] = tested on: Fos-positive cells in brain regions of interest; assay: Fos immunohistochemistry in rat brain; type: in vivo, male Wistar rats
Description: Fos immunohistochemistry was used to identify the neural “signature” of SOC-1 (5 mg/kg) in rat brain relative to injections of peripheral oxytocin (OT) (1 mg/kg). SOC-1 produces a similar overall pattern of neural activation and behavioural effects as OT. However, the effects are much larger and additional areas are activated by SOC-1 that are implicated in the regulation of social behaviour (e.g. lateral septum, medial preoptic area and supraoptic nucleus). SOC-1 produces powerful activation of OT-containing neurons in both the supraoptic (FIG. 6: (A)=vehicle; (B)=oxytocin; and (C)=SOC-1) and paraventricular nucleus of the hypothalamus.

5-HT2C = biological target: T1, 5-HT2C (Homo sapiens, UniProt P28335); assay: PDSP orthosteric binding screen
T1 construct: Psychoactive Drug Screening Program (PDSP)
T1 sequence (P28335 33-458, species assumed): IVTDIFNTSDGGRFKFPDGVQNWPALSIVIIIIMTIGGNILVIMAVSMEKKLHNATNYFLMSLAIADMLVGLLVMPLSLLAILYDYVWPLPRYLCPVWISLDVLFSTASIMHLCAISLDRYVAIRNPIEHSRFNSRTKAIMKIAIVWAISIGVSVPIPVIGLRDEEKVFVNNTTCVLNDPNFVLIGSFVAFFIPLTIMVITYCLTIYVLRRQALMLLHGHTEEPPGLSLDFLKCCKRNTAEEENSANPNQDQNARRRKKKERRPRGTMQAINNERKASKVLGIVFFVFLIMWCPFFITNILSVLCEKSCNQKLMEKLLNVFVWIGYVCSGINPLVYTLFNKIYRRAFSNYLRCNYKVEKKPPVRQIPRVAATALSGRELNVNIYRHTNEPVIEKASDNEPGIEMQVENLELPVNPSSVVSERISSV
From the text: (§1) Comprehensive screening of affinity for the orthosteric binding sites for numerous receptors from the Psychoactive Drug Screening Program (PDSP) have failed as yet to identify a target, despite the powerful OT-like behavioural effects of the compound evident in vivo and the clear activation of brain OT systems evident from our Fos data.

5-HT6 = biological target: T2, 5-HT6 (Homo sapiens, UniProt P50406); assay: PDSP orthosteric binding screen
T2 construct: Psychoactive Drug Screening Program (PDSP)
From the text: as §1

5-ht5a = biological target: T3, 5-ht5a (Homo sapiens, UniProt P47898); assay: PDSP orthosteric binding screen
T3 construct: Psychoactive Drug Screening Program (PDSP)
From the text: as §1

Alpha1B = biological target: T4, Alpha1B (Homo sapiens, UniProt P35368); assay: PDSP orthosteric binding screen
T4 construct: Psychoactive Drug Screening Program (PDSP)
From the text: as §1

Alpha1D = biological target: T5, Alpha1D (Homo sapiens, UniProt P25100); assay: PDSP orthosteric binding screen
T5 construct: Psychoactive Drug Screening Program (PDSP)
T5 sequence (P25100 whole entry): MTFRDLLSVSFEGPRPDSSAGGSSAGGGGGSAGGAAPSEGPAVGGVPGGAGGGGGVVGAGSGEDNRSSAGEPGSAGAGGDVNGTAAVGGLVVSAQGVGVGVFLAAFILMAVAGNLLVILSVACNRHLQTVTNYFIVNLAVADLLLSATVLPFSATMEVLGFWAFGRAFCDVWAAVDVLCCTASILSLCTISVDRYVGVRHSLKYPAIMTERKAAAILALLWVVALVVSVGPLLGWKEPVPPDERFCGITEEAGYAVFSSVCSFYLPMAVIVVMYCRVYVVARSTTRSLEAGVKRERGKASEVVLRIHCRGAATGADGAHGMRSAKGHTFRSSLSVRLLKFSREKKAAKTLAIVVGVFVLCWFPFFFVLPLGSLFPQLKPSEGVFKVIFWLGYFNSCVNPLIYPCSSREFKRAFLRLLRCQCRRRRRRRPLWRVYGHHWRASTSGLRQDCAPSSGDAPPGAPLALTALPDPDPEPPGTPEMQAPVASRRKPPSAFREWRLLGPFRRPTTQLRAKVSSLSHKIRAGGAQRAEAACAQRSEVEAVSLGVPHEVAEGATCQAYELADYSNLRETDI
From the text: as §1

Alpha2A = biological target: T6, Alpha2A (Homo sapiens, UniProt P08913); assay: PDSP orthosteric binding screen
T6 construct: Psychoactive Drug Screening Program (PDSP)
T6 sequence (P08913 whole entry): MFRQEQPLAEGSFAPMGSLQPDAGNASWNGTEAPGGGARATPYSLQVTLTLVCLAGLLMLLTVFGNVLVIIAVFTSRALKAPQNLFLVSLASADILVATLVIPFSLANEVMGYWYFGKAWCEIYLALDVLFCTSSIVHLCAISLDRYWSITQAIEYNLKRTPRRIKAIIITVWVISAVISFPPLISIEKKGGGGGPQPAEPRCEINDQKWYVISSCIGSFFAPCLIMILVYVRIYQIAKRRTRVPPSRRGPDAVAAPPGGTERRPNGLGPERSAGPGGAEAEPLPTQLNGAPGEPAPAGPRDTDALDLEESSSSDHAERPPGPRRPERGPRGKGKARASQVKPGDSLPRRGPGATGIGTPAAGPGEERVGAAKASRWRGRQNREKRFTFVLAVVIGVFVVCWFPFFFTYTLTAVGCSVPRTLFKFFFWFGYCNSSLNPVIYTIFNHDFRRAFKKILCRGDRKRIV
From the text: as §1

Alpha2B = biological target: T7, Alpha2B (Homo sapiens, UniProt P18089); assay: PDSP orthosteric binding screen
T7 construct: Psychoactive Drug Screening Program (PDSP)
T7 sequence (P18089 whole entry): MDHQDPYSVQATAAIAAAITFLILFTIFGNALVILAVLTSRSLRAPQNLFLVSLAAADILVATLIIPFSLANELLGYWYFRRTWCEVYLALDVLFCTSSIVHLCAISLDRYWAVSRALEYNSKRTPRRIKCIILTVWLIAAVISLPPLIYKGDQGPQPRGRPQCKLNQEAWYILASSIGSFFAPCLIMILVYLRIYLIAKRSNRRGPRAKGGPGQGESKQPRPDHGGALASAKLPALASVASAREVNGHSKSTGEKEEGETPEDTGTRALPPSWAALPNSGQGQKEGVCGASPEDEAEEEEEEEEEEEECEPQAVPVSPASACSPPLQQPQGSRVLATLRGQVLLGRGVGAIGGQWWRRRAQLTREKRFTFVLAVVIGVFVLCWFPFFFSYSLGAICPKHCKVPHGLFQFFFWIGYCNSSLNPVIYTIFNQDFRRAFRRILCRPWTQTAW
From the text: as §1

BZP Rat Brain Site = assay: PDSP orthosteric binding screen
From the text: as §1

Beta1 = biological target: T8, Beta1 (Homo sapiens, UniProt P08588); assay: PDSP orthosteric binding screen
T8 construct: Psychoactive Drug Screening Program (PDSP)
From the text: as §1

Beta2 = biological target: T9, Beta2 (Homo sapiens, UniProt P07550); assay: PDSP orthosteric binding screen
T9 construct: Psychoactive Drug Screening Program (PDSP)
T9 sequence (P07550 whole entry): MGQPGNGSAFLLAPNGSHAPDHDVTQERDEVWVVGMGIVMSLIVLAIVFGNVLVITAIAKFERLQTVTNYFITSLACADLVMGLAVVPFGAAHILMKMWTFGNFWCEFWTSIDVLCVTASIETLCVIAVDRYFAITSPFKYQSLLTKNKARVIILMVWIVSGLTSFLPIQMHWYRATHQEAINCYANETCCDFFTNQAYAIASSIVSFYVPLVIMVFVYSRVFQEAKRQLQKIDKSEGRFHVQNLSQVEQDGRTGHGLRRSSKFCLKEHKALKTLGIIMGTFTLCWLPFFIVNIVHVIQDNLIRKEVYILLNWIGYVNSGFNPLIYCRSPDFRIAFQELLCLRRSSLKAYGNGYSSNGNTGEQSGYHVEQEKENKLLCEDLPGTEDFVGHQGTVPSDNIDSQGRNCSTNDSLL
From the text: as §1

Beta3 = biological target: T10, Beta3 (Homo sapiens, UniProt P13945); assay: PDSP orthosteric binding screen
T10 construct: Psychoactive Drug Screening Program (PDSP)
From the text: as §1

D1 = biological target: T11, D1 (Homo sapiens, UniProt P21728); assay: PDSP orthosteric binding screen
T11 construct: Psychoactive Drug Screening Program (PDSP)
From the text: as §1

D2 = biological target: T12, D2 (Homo sapiens, UniProt P14416); assay: PDSP orthosteric binding screen
T12 construct: Psychoactive Drug Screening Program (PDSP)
T12 sequence (P14416 whole entry): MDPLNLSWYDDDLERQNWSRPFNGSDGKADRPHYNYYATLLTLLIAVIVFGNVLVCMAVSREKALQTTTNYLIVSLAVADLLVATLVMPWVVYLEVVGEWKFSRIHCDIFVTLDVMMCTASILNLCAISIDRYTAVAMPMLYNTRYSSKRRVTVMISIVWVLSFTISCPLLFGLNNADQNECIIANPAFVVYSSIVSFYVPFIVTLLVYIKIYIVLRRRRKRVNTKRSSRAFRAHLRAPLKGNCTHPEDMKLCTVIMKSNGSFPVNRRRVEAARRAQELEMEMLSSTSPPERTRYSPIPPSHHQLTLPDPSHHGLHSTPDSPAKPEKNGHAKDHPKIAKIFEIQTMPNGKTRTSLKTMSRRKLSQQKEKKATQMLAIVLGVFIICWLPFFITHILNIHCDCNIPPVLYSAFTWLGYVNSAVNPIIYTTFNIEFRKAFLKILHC
From the text: as §1

D4 = biological target: T13, D4 (Homo sapiens, UniProt P21917); assay: PDSP orthosteric binding screen
T13 construct: Psychoactive Drug Screening Program (PDSP)
From the text: as §1

D5 = biological target: T14, D5 (Homo sapiens, UniProt P21918); assay: PDSP orthosteric binding screen
T14 construct: Psychoactive Drug Screening Program (PDSP)
T14 sequence (P21918 whole entry): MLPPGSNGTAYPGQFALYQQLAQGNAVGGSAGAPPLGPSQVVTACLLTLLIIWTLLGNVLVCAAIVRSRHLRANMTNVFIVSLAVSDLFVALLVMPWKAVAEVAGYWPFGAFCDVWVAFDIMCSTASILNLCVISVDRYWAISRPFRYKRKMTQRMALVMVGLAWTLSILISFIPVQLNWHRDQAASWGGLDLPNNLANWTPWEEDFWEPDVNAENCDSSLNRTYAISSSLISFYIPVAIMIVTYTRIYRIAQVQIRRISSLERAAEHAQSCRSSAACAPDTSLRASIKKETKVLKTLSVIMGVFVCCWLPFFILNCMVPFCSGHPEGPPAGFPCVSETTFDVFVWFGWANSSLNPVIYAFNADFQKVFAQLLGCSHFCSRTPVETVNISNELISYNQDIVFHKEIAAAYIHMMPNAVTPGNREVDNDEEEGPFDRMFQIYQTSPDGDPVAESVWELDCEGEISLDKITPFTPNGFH
From the text: as §1

DAT = biological target: T15, DAT (Homo sapiens, UniProt Q01959); assay: PDSP orthosteric binding screen
T15 construct: Psychoactive Drug Screening Program (PDSP)
T15 sequence (Q01959 whole entry, species assumed): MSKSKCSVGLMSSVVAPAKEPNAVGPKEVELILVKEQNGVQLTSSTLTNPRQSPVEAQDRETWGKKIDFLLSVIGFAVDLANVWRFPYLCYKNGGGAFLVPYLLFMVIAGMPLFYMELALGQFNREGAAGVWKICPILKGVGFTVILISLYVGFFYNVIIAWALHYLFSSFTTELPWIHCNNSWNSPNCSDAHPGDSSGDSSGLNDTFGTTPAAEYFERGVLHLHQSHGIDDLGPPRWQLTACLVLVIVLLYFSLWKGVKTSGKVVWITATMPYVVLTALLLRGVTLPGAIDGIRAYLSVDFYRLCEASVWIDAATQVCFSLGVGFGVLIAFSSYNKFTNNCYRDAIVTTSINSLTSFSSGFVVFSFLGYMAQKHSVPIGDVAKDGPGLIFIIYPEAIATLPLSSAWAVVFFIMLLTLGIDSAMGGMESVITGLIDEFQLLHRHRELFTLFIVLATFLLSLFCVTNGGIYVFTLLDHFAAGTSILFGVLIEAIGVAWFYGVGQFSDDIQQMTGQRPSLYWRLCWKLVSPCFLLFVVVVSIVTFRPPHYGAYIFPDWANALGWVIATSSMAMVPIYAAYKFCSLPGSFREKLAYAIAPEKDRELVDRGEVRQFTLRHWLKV
From the text: as §1

DOR = biological target: T16, DOR (Homo sapiens, UniProt P41143); assay: PDSP orthosteric binding screen
T16 construct: Psychoactive Drug Screening Program (PDSP)
From the text: as §1

GABAA = assay: PDSP orthosteric binding screen
From the text: as §1

H2 = biological target: T17, H2 (Homo sapiens, UniProt P25021); assay: PDSP orthosteric binding screen
T17 construct: Psychoactive Drug Screening Program (PDSP)
From the text: as §1

H3 = biological target: T18, H3 (Homo sapiens, UniProt Q9Y5N1); assay: PDSP orthosteric binding screen
T18 construct: Psychoactive Drug Screening Program (PDSP)
From the text: as §1

KOR = biological target: T19, KOR (Homo sapiens, UniProt P41145); assay: PDSP orthosteric binding screen
T19 construct: Psychoactive Drug Screening Program (PDSP)
T19 sequence (P41145 whole entry): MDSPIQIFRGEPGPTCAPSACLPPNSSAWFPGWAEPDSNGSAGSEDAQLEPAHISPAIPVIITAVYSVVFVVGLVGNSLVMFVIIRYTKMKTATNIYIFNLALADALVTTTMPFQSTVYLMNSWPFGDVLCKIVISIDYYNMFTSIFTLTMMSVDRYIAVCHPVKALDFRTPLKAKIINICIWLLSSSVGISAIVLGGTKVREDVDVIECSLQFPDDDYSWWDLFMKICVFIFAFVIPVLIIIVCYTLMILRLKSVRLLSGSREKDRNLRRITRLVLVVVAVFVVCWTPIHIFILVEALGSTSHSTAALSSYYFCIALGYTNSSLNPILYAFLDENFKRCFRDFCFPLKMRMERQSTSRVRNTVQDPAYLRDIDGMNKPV
From the text: as §1

M2 = biological target: T20, M2 (Homo sapiens, UniProt P08172); assay: PDSP orthosteric binding screen
T20 construct: Psychoactive Drug Screening Program (PDSP)
T20 sequence (P08172 whole entry): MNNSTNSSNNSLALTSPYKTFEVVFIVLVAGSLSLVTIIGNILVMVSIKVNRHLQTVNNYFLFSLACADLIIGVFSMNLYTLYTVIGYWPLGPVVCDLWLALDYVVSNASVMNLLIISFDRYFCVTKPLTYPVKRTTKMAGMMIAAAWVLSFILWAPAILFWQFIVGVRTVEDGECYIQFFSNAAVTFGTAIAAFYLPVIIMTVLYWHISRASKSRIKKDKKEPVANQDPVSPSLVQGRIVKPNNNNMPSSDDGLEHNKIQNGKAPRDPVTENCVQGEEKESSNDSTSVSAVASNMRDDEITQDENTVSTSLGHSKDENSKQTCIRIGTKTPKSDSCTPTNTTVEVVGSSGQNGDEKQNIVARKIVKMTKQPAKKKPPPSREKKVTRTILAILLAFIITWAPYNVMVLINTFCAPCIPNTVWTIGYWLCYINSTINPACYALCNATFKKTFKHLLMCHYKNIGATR
From the text: as §1

M3 = biological target: T21, M3 (Homo sapiens, UniProt P20309); assay: PDSP orthosteric binding screen
T21 construct: Psychoactive Drug Screening Program (PDSP)
From the text: as §1

M4 = biological target: T22, M4 (Homo sapiens, UniProt P08173); assay: PDSP orthosteric binding screen
T22 construct: Psychoactive Drug Screening Program (PDSP)
From the text: as §1

PBR = biological target: T23, PBR (Rattus norvegicus, UniProt P16257); assay: PDSP orthosteric binding screen
T23 construct: Psychoactive Drug Screening Program (PDSP)
From the text: as §1

SERT = biological target: T24, SERT (Homo sapiens, UniProt P31645); assay: PDSP orthosteric binding screen
T24 construct: Psychoactive Drug Screening Program (PDSP)
From the text: as §1

Sigma 1 = assay: PDSP orthosteric binding screen
From the text: as §1

Sigma 2 = assay: PDSP orthosteric binding screen
From the text: as §1

## Cl.Cn1ncc2c1Nc1ccccc1NC2 [SOC-1]
[1]; ip, 5 mg/kg
  AUC(0-inf): 5910 ng·h/mL
  AUC(0-t): 5520 ng·h/mL
  Cmax: 3840 ng/mL
  Tmax: 3.96 min
[1]; po, 5 mg/kg
  AUC(0-inf): 8490 ng·h/mL
  AUC(0-t): 4060 ng·h/mL
  Cmax: 1320 ng/mL
  Tmax: 26.1 min
[1]; IP, 5 mg/kg
  ka: 71.727 h⁻¹
  ke: 0.679 h⁻¹
  t1/2ka: 0.5798 min
  t1/2ke: 61.26 min
[1]; PO, 5 mg/kg
  ka: 9.45 h⁻¹
  t1/2ka: 4.38 min
  t1/2ke: 248.8 min
[1]; oral dosing
  half-life: over four
[1]; relative to the intraperitoneal route
  oral bioavailability: excellent oral bioavailability
[2]; 5 mg/kg
  Fos expression in the oxytocin-positive cells in the supraoptic nucleus of the hypothalamus (SON): strongly activates Fos expression
[2]; OT 1 mg/kg, SOC-1 5 mg/kg
  Mean number of Fos-positive cells, BNST (dorsolateral division): 10.25
  Mean number of Fos-positive cells, BNST (middle anterior part)): 7
  Mean number of Fos-positive cells, Central nucleus of the amygdala: 14.33
  Mean number of Fos-positive cells, Lateral Parabrachial nucleus: 12.91
  Mean number of Fos-positive cells, Lateral septum (ventral): 34.17
  Mean number of Fos-positive cells, Locus Ceruleus: 8.08
  Mean number of Fos-positive cells, Medial preoptic area: 10.30
  Mean number of Fos-positive cells, Median preoptic nucleus: 7.08
  Mean number of Fos-positive cells, Nucleus of Solitary Tract: 17.58
  Mean number of Fos-positive cells, PAG (ventrolateral): 8.58
  Mean number of Fos-positive cells, Paraventircular nucleus: 47.18
  Mean number of Fos-positive cells, Supraoptic nucleus: 15.42
  Mean percent of OT cells that were Fos positive, Paraventircular nucleus: 23.41%
  Mean percent of OT cells that were Fos positive, Supraoptic nucleus: 32.59%
5-HT2C
  affinity for 5-HT2C: no notable affinity
5-HT6
  affinity for 5-HT6: no notable affinity
5-ht5a
  affinity for 5-ht5a: no notable affinity
Alpha1B
  affinity for Alpha1B: no notable affinity
Alpha1D
  affinity for Alpha1D: no notable affinity
Alpha2A
  affinity for Alpha2A: no notable affinity
Alpha2B
  affinity for Alpha2B: no notable affinity
BZP Rat Brain Site
  affinity for BZP Rat Brain Site: no notable affinity
Beta1
  affinity for Beta1: no notable affinity
Beta2
  affinity for Beta2: no notable affinity
Beta3
  affinity for Beta3: no notable affinity
D1
  affinity for D1: no notable affinity
D2
  affinity for D2: no notable affinity
D4
  affinity for D4: no notable affinity
D5
  affinity for D5: no notable affinity
DAT
  affinity for DAT: no notable affinity
DOR
  affinity for DOR: no notable affinity
GABAA
  affinity for GABAA: no notable affinity
H2
  affinity for H2: no notable affinity
H3
  affinity for H3: no notable affinity
KOR
  affinity for KOR: no notable affinity
M2
  affinity for M2: no notable affinity
M3
  affinity for M3: no notable affinity
M4
  affinity for M4: no notable affinity
PBR
  affinity for PBR: no notable affinity
SERT
  affinity for SERT: no notable affinity
Sigma 1
  affinity for Sigma 1: no notable affinity
Sigma 2
  affinity for Sigma 2: no notable affinity

— US11890287B2, “Therapeutic compounds and compositions for treating social disorders and substance use disorders” (Kinoxis Therapeutics Pty Ltd, priority 2015, dated 2024)
